Experiments:
L-02 cells [1] = experiment: Cell growth inhibition assay (CCK-8); assay type: cell-based, human; conditions: single compounds; for IC50 (cell viability): L-02, 24 h exposure; for IC50: Homo sapiens, L02, L-02, 24 h exposure, read-out: IC50 (cell viability)
L-02 cells [2] = experiment: Intracellular accumulation in L-02 cells by LC–MS/MS; assay type: in vitro ADME, human; conditions: for intracellular uptake in the JLZS group compared with the RC group: L-02, JLZS 6.5 mg/mL vs RC 3.25 mg/mL; for intracellular uptake in the JLZS group compared with the RC group / Intracellular concentration: n = 6; for Intracellular concentration: L-02, JLZS extracts 6.5 mg/mL
L-02 cells [3] = experiment: Intracellular identification of L-02 cell-uptake components by LC–MS/MS; assay type: in vitro ADME, human; conditions: L-02 exposed to JLZS-containing medium 6.5 mg/mL for 2 h
Experimental: The powder of 25 g FT and 25 g RC was evenly blended and then refluxed twice with six-fold 50% ethanol (1: 6, w/v) for 1 h; the collected filtrate was evaporated to dryness and further dissolved in DMSO, after filtering using the 0.22-µm cellulose acetate membrane. JLZS-containing medium (6.5 mg/mL) was freshly prepared by diluting the filtrate with RPMI-1640. Likewise, RC-containing medium was freshly prepared in the same method independently.
L-02 cells were seeded on 9-cm-diameter cell culture plates; after ∼80% confluent, the cultured cells were incubated with 6.5 mg/mL JLZS-containing medium. After 2-h exposure, L-02 cells were quickly washed free of culture medium with cold PBS (−) twice and harvested with 1 mL of 0.25% trypsin-EDTA for cell isolation. The cell suspension (∼5 × 10^6 cells) was spun down, and the cells were further washed twice in cold PBS (−). Then, 200 µL of methanol was used to lyse the collected cells with vortex mixing for 1 min. The cell lysates were centrifuged at 12,000 rpm for 4 min, and 10 μL of the centrifugal supernatant was injected into the LC–MS/MS system for identified analysis.
The LC–MS/MS system consisted of a Thermo TSQ Quantum Ultra triple-quadrupole mass spectrometer equipped with an electrospray ionization source (San Jose, CA, United States). LCquan quantitation software (version 2.5.6, Thermo Fisher Scientific, Waltham, MA, USA) was used to control the LC–MS/MS system for data acquisition and analysis. Analytes and IS separation were conducted using a Waters XTerra® MS C18 column (3.0 mm × 50 mm, 5 µm) maintained at 20 °C. By injecting 5 µL samples with a flow rate of 0.2 mL/min, chromatographic separation was achieved using a mobile phase of 0.1% formic acid–water (A) and methanol (B) via gradient elution, 0.0–2.0 min, 35%–50% B; 2.0–2.1 min, 50%–55% B; 2.1–2.5 min, 55%–60% B; 2.5–14.0 min, 60% B. The analytes and IS were detected in the ESI source by polarity switching from positive for 0.0–8.0 min to negative-ion modes for 8.5–14.0 min in a single run with multiple reaction monitoring (MRM).

[4] = Stability of analytes in cell lysates (LC–MS/MS method validation); assay type: physicochemical; conditions: n=3; for Post-preparation stability RE%: 4 ℃, 24 h at autosampler; for Short-term stability RE%: 12 h at room temperature; for Long-term stability RE%: -80℃ for a month; for Freeze-thaw stability RE%: three freeze-thaw
Experimental: The stability of seven analytes including short-term stability (12 h at room temperature), post-preparation stability at 4 ℃ (24 h at autosampler), freeze-thaw stability (three freeze-thaw stability) and long-term stability (-80℃ for a month) was tested by analyzing three replicates at low and high QC levels during various sample storage and handling process.

[5] = design: method as in Gu et al., 2021; conditions: pharmacokinetic level, JLZS vs single herb; ref Gu et al., 2021; cited from earlier work

Compound | IC50 (cell viability) (L-02 cells [1]) | Intracellular concentration (L-02 cells [2]; time 0.25 h) [ng/mL] | Intracellular concentration (L-02 cells [2]; time 0.5 h) [ng/mL] | Intracellular concentration (L-02 cells [2]; time 1 h) [ng/mL] | Intracellular concentration (L-02 cells [2]; time 1.5 h) [ng/mL] | Intracellular concentration (L-02 cells [2]; time 2 h) [ng/mL] | Intracellular concentration (L-02 cells [2]; time 3 h) [ng/mL] | Intracellular concentration (L-02 cells [2]; time 5 h) [ng/mL] | Intracellular concentration (L-02 cells [2]; time 8 h) [ng/mL] | detection in cell lysates (L-02 cells [3]) | Post-preparation stability RE% ([4]; high QC level) [%] | Post-preparation stability RE% ([4]; low QC level) [%] | Short-term stability RE% ([4]; high QC level) [%] | Short-term stability RE% ([4]; low QC level) [%] | Long-term stability RE% ([4]; high QC level) [%] | Long-term stability RE% ([4]; low QC level) [%] | Freeze-thaw stability RE% ([4]; high QC level) [%] | Freeze-thaw stability RE% ([4]; low QC level) [%] | elimination in the JLZS group compared with the single-herb group [5] | also measured
COc1ccc2c(c1OC)CN(C)CCc1cc3c(cc1C(=O)C2)OCO3 [ALL, allocryptopine] | not detected IC50 values within the set concentration range |  |  |  |  |  |  |  |  |  |  |  |  |  |  |  |  |  |  | 
COc1ccc2cc3[n+](cc2c1OC)CCc1cc2c(cc1-3)OCO2 [BER, berberine] |  | 3.2 ± 0.5 | 3.7 ± 0.3 | 5.5 ± 1.3 | 7.2 ± 2.5 | 8.3 ± 4.0 | 10.1 ± 1.7 | 12.3 ± 2.5 | 15.6 ± 4.9 | found in the cell lysates | 3.1 | 1.8 | 2.5 | 5.6 | 1.2 | 1.8 | 6.9 | 5.6 |  | IC50 (L-02 cells [1]): 41.2 µg/mL; intracellular uptake in the JLZS group compared with the RC group (L-02 cells [2]): decreased significantly
c1c2c(cc3c1OCO3)-c1cc3ccc4c(c3c[n+]1CC2)OCO4 [COP, coptisine] |  | 38.3 ± 4.9 | 44.0 ± 11.4 | 67.5 ± 7.7 | 84.4 ± 21.2 | 98.1 ± 34.8 | 134.8 ± 24.4 | 197.6 ± 45.9 | 261.8 ± 60.2 | found in the cell lysates | 6.8 | -0.6 | 6.2 | 5.6 | 6.6 | 4.0 | 5.0 | 0.7 |  | IC50 (L-02 cells [1]): 14 µg/mL; intracellular uptake in the JLZS group compared with the RC group (L-02 cells [2]): decreased significantly; dose-normalized intracellular accumulation (ranking) (L-02 cells [2]; ratio of highest intracellular accumulation versus content in JLZS extracts, L-02): the highest
COc1cc2c(cc1OC)[C@H]1[C@@H](C)c3ccc(OC)c(OC)c3CN1CC2 [COR, corydaline] | not detected IC50 values within the set concentration range |  |  |  |  |  |  |  |  |  |  |  |  |  |  |  |  |  | decreased significantly | 
COc1cc2c(cc1OC)-c1c(C)c3ccc(OC)c(OC)c3c[n+]1CC2 [DHC, dehydrocorydaline] | not detected IC50 values within the set concentration range | 15.2 ± 2.9 | 26.1 ± 3.0 | 53.1 ± 4.0 | 71.9 ± 5.5 | 74.8 ± 6.2 | 82.0 ± 7.5 | 122.0 ± 8.7 | 98.2 ± 9.6 | found in the cell lysates | 6.6 | -0.2 | 8.8 | -2.4 | 1.3 | 2.3 | 0.4 | -0.6 | decreased significantly | 
COc1cc2c(cc1O)CC[n+]1cc3c(OC)c(OC)ccc3cc1-2 [JAT, jatrorrhizine] | not detected IC50 values within the set concentration range | 13.4 ± 0.2 | 13.8 ± 0.8 | 14.9 ± 0.8 | 15.8 ± 1.8 | 16.3 ± 1.9 | 19.6 ± 1.0 | 21.2 ± 3.5 | 26.2 ± 6.0 | found in the cell lysates | 4.7 | -0.2 | 8.0 | 5.3 | 4.0 | 1.9 | 8.0 | 2.9 |  | 
COc1cc2c(cc1OC)-c1cc3ccc(OC)c(OC)c3c[n+]1CC2 [PAL, palmatine] | not detected IC50 values within the set concentration range | 11.6 ± 1.8 | 15.6 ± 2.7 | 29.6 ± 7.9 | 40.2 ± 10.1 | 49.4 ± 19.9 | 65.7 ± 12.4 | 96.9 ± 10.7 | 99.5 ± 24.3 | found in the cell lysates | 6.8 | -1.3 | 2.5 | 6.5 | 0.0 | 6.4 | 6.5 | -3.5 | decreased significantly | 
CN1CCc2cc3c(cc2C(=O)Cc2ccc4c(c2C1)OCO4)OCO3 [PRO, protopine] | not detected IC50 values within the set concentration range |  |  |  |  |  |  |  |  |  |  |  |  |  |  |  |  |  |  | 
C[C@@H]1O[C@@H](OC[C@H]2O[C@@H](Oc3c(-c4ccc(O)c(O)c4)oc4cc(O)cc(O)c4c3=O)[C@H](O)[C@@H](O)[C@@H]2O)[C@H](O)[C@H](O)[C@H]1O [RUT, rutin] | not detected IC50 values within the set concentration range |  |  |  |  |  |  |  |  |  |  |  |  |  |  |  |  |  |  | 
COc1ccc2c(c1OC)CN1CCc3cc4c(cc3C1C2)OCO4 (stereo not drawn) [THB, tetrahydroberberine] | not detected IC50 values within the set concentration range |  |  |  |  |  |  |  |  |  |  |  |  |  |  |  |  |  | decreased significantly | 
c1cc2c(c3c1CC1c4cc5c(cc4CCN1C3)OCO5)OCO2 (stereo not drawn) [THC, tetrahydrocoptisine] | not detected IC50 values within the set concentration range | 15.8 ± 3.0 | 13.3 ± 0.5 | 15.0 ± 2.7 | 17.7 ± 3.6 | 20.3 ± 5.4 | 15.8 ± 2.9 | 15.1 ± 1.4 | 13.3 ± 1.8 | found in the cell lysates | -0.9 | -0.6 | 4.6 | 3.4 | 1.2 | 5.3 | -1.4 | -2.5 | decreased significantly | 
COc1cc2c(cc1OC)[C@@H]1Cc3ccc(OC)c(OC)c3CN1CC2 [THP, tetrahydropalmatine] | not detected IC50 values within the set concentration range |  |  |  |  |  |  |  |  |  |  |  |  |  |  |  |  |  | decreased significantly | 

From article PMC12162926, “A novel strategy for identifying hepatotoxic constituents in traditional Chinese medicine using dose-normalized intracellular accumulation as a cytotoxicity indicator: a case study of Jinlingzi San” (Frontiers in Pharmacology, 2025)
